Source: patent US10294212B2 (CURADEV PHARMA PRIVATE LTD., priority 2013, dated 2019)

Experiments:
[1] = target: Human TDO (hTDO)-transfected CHO-K1 cells (Homo sapiens (Human), UniProt P48775); assay: CHO-K1 cell based TDO assay; conditions: hTDO cellular assay
Procedure, shortened: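 Kynurenine output was read by LC/MS/MS after TCA precipitation and 15 min at 65° C. Before that, CHO-K1 cells stably carrying human TDO2 were incubated 2 h with compounds (typically 31 μM to 10 nM) and 80 μM L-tryptophan in HBSS. Decrease versus DMSO vehicle gave percent inhibition, then IC50.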

[2] = target: Human indoleamine 2,3-dioxygenase1 (hIDO1) (Homo sapiens (Human), UniProt P14902); assay: In-vitro IDO1 enzyme assay (conversion of L-tryptophan to KYN); format: biochemical; conditions: read-out: IC50 (IDO1) Enz
Sequence of Human indoleamine 2,3-dioxygenase1 (hIDO1) (P14902 whole entry): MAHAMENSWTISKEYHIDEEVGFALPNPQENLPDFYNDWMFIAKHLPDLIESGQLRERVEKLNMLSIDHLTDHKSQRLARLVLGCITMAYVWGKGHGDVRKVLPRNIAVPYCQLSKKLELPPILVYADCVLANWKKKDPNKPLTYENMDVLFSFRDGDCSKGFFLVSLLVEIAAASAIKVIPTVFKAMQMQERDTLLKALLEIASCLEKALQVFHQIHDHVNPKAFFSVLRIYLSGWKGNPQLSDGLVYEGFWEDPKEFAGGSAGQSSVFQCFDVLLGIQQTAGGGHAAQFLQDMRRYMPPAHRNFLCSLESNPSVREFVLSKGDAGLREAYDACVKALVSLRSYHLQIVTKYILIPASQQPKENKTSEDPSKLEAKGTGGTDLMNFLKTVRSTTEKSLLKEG
Procedure, shortened: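 Kynurenine formation quantified by HPLC absorbance at 360 nm or LC/MS/MS after TCA quench and 15 min at 65 °C. Reaction: 10 nM N-His hIDO1, 30 μM tryptophan, ascorbate/methylene blue/catalase, pH 6.5 phosphate buffer, 37 °C for 30 min. Inhibition relative to 1% DMSO vehicle, fitted to IC50.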

IDO1 in HeLa cells = IDO1 in HeLa cells (Homo sapiens (Human), UniProt P14902); assay: HeLa cell based IDO1 assay (IFNγ-induced, KYN in supernatant)
Sequence of IDO1 in HeLa cells (P14902 whole entry): as above
Procedure, shortened: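 Kynurenine in the supernatant, quantified by C-18 HPLC with 360 nm absorbance after TCA hydrolysis (65 °C, 15 min), was the read-out. Compounds (typically 10 μM to 1 nM) were added in HBSS containing 80 μM tryptophan to HeLa cells pre-induced overnight with 50 ng/mL IFNγ. IC50 came from nonlinear fits of % inhibition versus 1% DMSO vehicle.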

Sequence of Human TDO (hTDO)-transfected CHO-K1 cells (P48775 whole entry): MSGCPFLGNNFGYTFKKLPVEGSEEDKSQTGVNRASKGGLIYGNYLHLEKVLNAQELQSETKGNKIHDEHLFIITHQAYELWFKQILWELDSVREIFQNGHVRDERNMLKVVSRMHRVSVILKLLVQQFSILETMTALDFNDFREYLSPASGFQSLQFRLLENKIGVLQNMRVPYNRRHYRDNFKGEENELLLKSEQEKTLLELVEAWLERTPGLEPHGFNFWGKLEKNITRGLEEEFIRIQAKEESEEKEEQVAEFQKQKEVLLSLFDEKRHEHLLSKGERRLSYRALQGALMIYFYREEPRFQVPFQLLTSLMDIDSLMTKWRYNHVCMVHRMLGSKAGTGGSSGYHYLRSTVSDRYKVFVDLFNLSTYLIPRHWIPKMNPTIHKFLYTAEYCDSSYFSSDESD

Structure (SMILES)	IC50 [1] [nM]	IC50 [2] [nM]	IC50 (IDO1 in HeLa cells) [nM]
Nc1sc2ccccc2c1Nc1ccc(F)c(Cl)c1 [Compound 117, N^3-(3-Chloro-4-fluorophenyl)benzo[b]thiophene-2,3-diamine]	< 500	< 200	< 200
CCc1nccc2c(Nc3ccc(F)c(C(F)(F)F)c3)c(N)oc12 [Compound 74, 7-Ethyl-N^3-(4-fluoro-3-(trifluoromethyl)phenyl)furo[2,3-c]pyridine-2,3-diamine]	> 2000	< 200	< 200
N#Cc1nccc2c(Nc3ccccc3Cl)c(N)oc12 [Compound 182, 2-Amino-3-((2-chlorophenyl)amino)furo[2,3-c]pyridine-7-carbonitrile]	> 2000	< 200	< 200
Nc1oc2cnccc2c1Nc1cccc(I)c1 [Compound 20, N^3-(3-Iodophenyl)furo[2,3-c]pyridine-2,3-diamine]	500 to 2000	< 200	< 200
CCCc1nccc2c(Nc3ccc(F)c(Cl)c3)c(N)oc12 [Compound 77, N^3-(3-Chloro-4-fluoro-phenyl)-7-propyl-furo[2,3-c]pyridine-2,3-diamine]	> 2000	< 200	< 200
Cc1ccc(Nc2c(N)oc3cnccc23)cc1C [Compound 13, N^3-(3,4-Dimethylphenyl)furo[2,3-c]pyridine-2,3-diamine]	500 to 2000	200 to 1000	< 200
Nc1oc2c(-c3ccncc3)nc(F)cc2c1Nc1ccc(F)c(Cl)c1 [Compound 180, N^3-(3-Chloro-4-fluorophenyl)-5-fluoro-7-(pyridin-4-yl)furo[2,3-c]pyridine-2,3-diamine]	500 to 2000	< 200	< 200
COc1cc2c(Nc3ccc(F)c(Cl)c3)c(N)oc2c(-c2ccc(C(N)=O)cc2)n1 [Compound 175, 4-(2-amino-3-((3-chloro-4-fluorophenyl)amino)-5-methoxyfuro[2,3-c]pyridin-7-yl)benzamide]	> 2000	< 200	< 200
Nc1oc2cnccc2c1Nc1ccc(Br)cc1 [Compound 16, N^3-(4-Bromophenyl)furo[2,3-c]pyridine-2,3-diamine]	500 to 2000	> 1000	200 to 1000

Results, then the compound that gave them:

IC50 [1] [nM]	IC50 [2] [nM]	IC50 (IDO1 in HeLa cells) [nM]	Structure (SMILES)
500 to 2000	< 200	< 200	Nc1oc2c(/C=C/c3ccccc3)nccc2c1Nc1ccc(F)c(Cl)c1 [Compound 280, N^3-(3-Chloro-4-fluorophenyl)-7-styrylfuro[2,3-c]pyridine-2,3-diamine]
< 500	< 200	< 200	Nc1sc2ccccc2c1Nc1cccc(Cl)c1 [Compound 234, N^3-(3-Chlorophenyl)benzo[b]thiophene-2,3-diamine]
500 to 2000	< 200	< 200	CNC(=O)c1cc(-c2nccc3c(Nc4ccccc4Cl)c(N)oc23)ccn1 [Compound 219, 4-(2-Amino-3-((2-chlorophenyl)amino)furo[2,3-c]pyridin-7-yl)-N-methylpicolinamide]
500 to 2000	< 200	< 200	Nc1oc2c(-c3ccncc3)nccc2c1Nc1cccc(C(F)(F)F)c1 [Compound 203, 7-(Pyridin-4-yl)-N^3-(3-(trifluoromethyl)phenyl)furo[2,3-c]pyridine-2,3-diamine]
< 500	< 200	< 200	Cc1cc(-c2nccc3c(Nc4cccc(F)c4)c(N)oc23)ccn1 [Compound 243, N^3-(3-Fluorophenyl)-7-(2-methylpyridin-4-yl)furo[2,3-c]pyridine-2,3-diamine]
500 to 2000	< 200	< 200	Nc1oc2c(-c3ccncc3)nc(F)cc2c1Nc1ccc(F)c(F)c1 [Compound 188, N^3-(3,4-Difluorophenyl)-5-fluoro-7-(pyridin-4-yl)furo[2,3-c]pyridine-2,3-diamine]
